Assay results from publication PMC7906334, “The cell surface protein MUL_3720 confers binding of the skin pathogen Mycobacterium ulcerans to sulfated glycans and keratin” (PLoS Neglected Tropical Diseases, 2021).

Target: T1, MUL_3720 (Mycobacterium ulcerans, UniProt A0PU23)
T1 construct: full length aa 1-207 in pET28a, recombinant, purified; 22 kDa; the MUL_ locus tags are those of strain Agy99
Assay: SPR (Biacore T200)
Assay type: binding
Settings: read-out: MUL_3720; protein amine-immobilised on CM5 chip, free glycan as analyte

Compared with CC(=O)N[C@H]1C(O)O[C@H](CO)[C@@H](O[C@@H]2O[C@@H](C)[C@@H](O)[C@@H](O)[C@@H]2O)[C@@H]1O[C@@H]1O[C@H](CO)[C@H](O)[C@H](OS(=O)(=O)O)[C@H]1O[C@@H]1O[C@@H](C)[C@@H](O)[C@@H](O)[C@@H]1O (stereo partly shown) [Fucα1-2(3-O-Su)Galβ1-3(Fucα1–4)GlcNAc], CC(=O)N[C@H]1C(O)O[C@H](COS(=O)(=O)O)[C@H](O)[C@@H]1O[C@@H]1OC(C(=O)O)=C[C@H](O)[C@H]1O (stereo partly drawn) [chondroitin 6S-disaccharide ΔUAα 1-3GalNAc-6S] is 180-fold lower in Kd: 17400 ± 1900 nM for the first, 99.2 ± 35 nM for the second.

Target: T1, MUL_3720
Assay: glycan array (fluorescence)
Assay type: binding
Settings: glycan printed on slide via spacer; 1 mM CaCl2 and 1 mM MgCl2 PBS printed for the cell arrays
Excerpt: glycan array (fluorescence) on MUL_3720

“3,6-O-Su2-Galβ1-4(6-O-Su)GlcNAcβ-sp2 [compound 189]” and “3,6-O-Su2-Galβ1-4GlcNAcβ-sp2 [compound 182]” are within error of each other in “fold change in fluorescence binding signal” value (“fold change” for short): 2.46±0.56 fold for the first, 3.29±1.77 fold for the second.

“4,6-O-Su2-GalNAcβ1-4-(3-O-Ac)GlcNAcβ-sp3 [compound 199]” and “6-O-Su-Galβ1-3(6-O-Su)GlcNAcβ-sp2 [compound 179]” are within error of each other in “fold change” value: 2.45±0.87 fold for the first, 1.48±0.33 fold for the second.

“6-O-Su-Galβ1-3GalNAcα-sp3 [compound 151]” and “6-O-Su-Galβ1-3GlcNAcβ-sp3 [compound 161]” are within error of each other in “fold change” value: 2.44±0.88 fold for the first, 2.49±0.26 fold for the second.

CC(=O)N[C@H]1[C@H](OCCCN)O[C@H](CO)[C@@H](O[C@@H]2O[C@H](CO)[C@H](OS(=O)(=O)O)[C@H](OS(=O)(=O)O)[C@H]2O)[C@@H]1O [compound 201, 3,4-O-Su2-Galβ1-4GlcNAcβ-sp3] was tested, and the “fold change” value was 1.52±0.64 fold.

Target: MUL_3720 (Mycobacterium ulcerans) (UniProt A0PU23)
Assay: SPR; Biacore T200; MUL_3720 immobilised on a CM5 chip at pH 4.5 (5 uL/min, 600 s), ethanolamine blank flow cell as control; keratin extract flowed between 2 nM and 20 uM; double reference subtracted
Settings: not given

“keratin isolated from human epidermis (mixed keratins with average molecular weight of 64.1 kDa)” was tested, and the Kd was 4.78 nM.
